According to the NIST ThermoML archive (doi:10.1021/je034087q):
± gives the expanded uncertainty stated by the source.

Assay: xn = mol fraction of the nth substance listed

CC(C)=O [acetone] + O=C=O
Settings | mass density [kg/m3]
318.15 K, 8180 kPa, Fluid (supercritical or subcritical phases), x2 = 0.902 | 715 ± 4
318.15 K, 8410 kPa, Fluid (supercritical or subcritical phases), x2 = 0.902 | 722 ± 5
318.15 K, 8570 kPa, Fluid (supercritical or subcritical phases), x2 = 0.902 | 726 ± 5
318.15 K, 8810 kPa, Fluid (supercritical or subcritical phases), x2 = 0.902 | 732 ± 5
318.15 K, 8960 kPa, Fluid (supercritical or subcritical phases), x2 = 0.902 | 735 ± 5
318.15 K, 9180 kPa, Fluid (supercritical or subcritical phases), x2 = 0.902 | 738 ± 5
318.15 K, 9410 kPa, Fluid (supercritical or subcritical phases), x2 = 0.902 | 744 ± 5
318.15 K, 9570 kPa, Fluid (supercritical or subcritical phases), x2 = 0.902 | 746 ± 5
318.15 K, 9780 kPa, Fluid (supercritical or subcritical phases), x2 = 0.902 | 751 ± 5
318.15 K, 9900 kPa, Fluid (supercritical or subcritical phases), x2 = 0.902 | 754 ± 5
318.15 K, 10070 kPa, Fluid (supercritical or subcritical phases), x2 = 0.902 | 756 ± 5
318.15 K, 10330 kPa, Fluid (supercritical or subcritical phases), x2 = 0.902 | 757 ± 5
318.15 K, 10540 kPa, Fluid (supercritical or subcritical phases), x2 = 0.902 | 763 ± 5
318.15 K, 10770 kPa, Fluid (supercritical or subcritical phases), x2 = 0.902 | 766 ± 5
318.15 K, 10970 kPa, Fluid (supercritical or subcritical phases), x2 = 0.902 | 770 ± 5
318.15 K, 11190 kPa, Fluid (supercritical or subcritical phases), x2 = 0.902 | 774 ± 5
318.15 K, 11500 kPa, Fluid (supercritical or subcritical phases), x2 = 0.902 | 776 ± 5
318.15 K, 11830 kPa, Fluid (supercritical or subcritical phases), x2 = 0.902 | 781 ± 5
318.15 K, 12140 kPa, Fluid (supercritical or subcritical phases), x2 = 0.902 | 785 ± 5
318.15 K, 12450 kPa, Fluid (supercritical or subcritical phases), x2 = 0.902 | 789 ± 5
318.15 K, 12710 kPa, Fluid (supercritical or subcritical phases), x2 = 0.902 | 793 ± 5
318.15 K, 13050 kPa, Fluid (supercritical or subcritical phases), x2 = 0.902 | 795 ± 5
318.15 K, 13370 kPa, Fluid (supercritical or subcritical phases), x2 = 0.902 | 798 ± 5
318.15 K, 13700 kPa, Fluid (supercritical or subcritical phases), x2 = 0.902 | 803 ± 5
318.15 K, 14060 kPa, Fluid (supercritical or subcritical phases), x2 = 0.902 | 807 ± 5
318.15 K, 14370 kPa, Fluid (supercritical or subcritical phases), x2 = 0.902 | 809 ± 5
318.15 K, 14610 kPa, Fluid (supercritical or subcritical phases), x2 = 0.902 | 812 ± 5
318.15 K, 14870 kPa, Fluid (supercritical or subcritical phases), x2 = 0.902 | 815 ± 5
318.15 K, Liquid, Other PVT measurement, x2 = 0.902 | 709 ± 2
323.15 K, 1690 kPa, Fluid (supercritical or subcritical phases), x2 = 0.186 | 764 ± 5
323.15 K, 2050 kPa, Fluid (supercritical or subcritical phases), x2 = 0.186 | 767 ± 5
323.15 K, 2920 kPa, Fluid (supercritical or subcritical phases), x2 = 0.186 | 770 ± 5
323.15 K, 4190 kPa, Fluid (supercritical or subcritical phases), x2 = 0.383 | 789 ± 5
323.15 K, 4500 kPa, Fluid (supercritical or subcritical phases), x2 = 0.186 | 772 ± 5
323.15 K, 5090 kPa, Fluid (supercritical or subcritical phases), x2 = 0.576 | 798 ± 5
323.15 K, 5870 kPa, Fluid (supercritical or subcritical phases), x2 = 0.383 | 795 ± 5
323.15 K, 6050 kPa, Fluid (supercritical or subcritical phases), x2 = 0.186 | 775 ± 5
323.15 K, 6120 kPa, Fluid (supercritical or subcritical phases), x2 = 0.576 | 802 ± 5
323.15 K, 7330 kPa, Fluid (supercritical or subcritical phases), x2 = 0.186 | 777 ± 5
323.15 K, 7430 kPa, Fluid (supercritical or subcritical phases), x2 = 0.576 | 810 ± 5
323.15 K, 7470 kPa, Fluid (supercritical or subcritical phases), x2 = 0.772 | 783 ± 5
323.15 K, 7570 kPa, Fluid (supercritical or subcritical phases), x2 = 0.811 | 760 ± 5
323.15 K, 7780 kPa, Fluid (supercritical or subcritical phases), x2 = 0.811 | 764 ± 5
323.15 K, 7880 kPa, Fluid (supercritical or subcritical phases), x2 = 0.383 | 800 ± 5
323.15 K, 7930 kPa, Fluid (supercritical or subcritical phases), x2 = 0.772 | 787 ± 5
323.15 K, 7930 kPa, Fluid (supercritical or subcritical phases), x2 = 0.811 | 769 ± 5
323.15 K, 8250 kPa, Fluid (supercritical or subcritical phases), x2 = 0.882 | 703 ± 4
323.15 K, 8280 kPa, Fluid (supercritical or subcritical phases), x2 = 0.811 | 774 ± 5
323.15 K, 8420 kPa, Fluid (supercritical or subcritical phases), x2 = 0.772 | 792 ± 5
323.15 K, 8500 kPa, Fluid (supercritical or subcritical phases), x2 = 0.882 | 712 ± 4
323.15 K, 8620 kPa, Fluid (supercritical or subcritical phases), x2 = 0.811 | 778 ± 5
323.15 K, 8630 kPa, Fluid (supercritical or subcritical phases), x2 = 0.882 | 716 ± 4
323.15 K, 8710 kPa, Fluid (supercritical or subcritical phases), x2 = 0.186 | 781 ± 5
323.15 K, 8750 kPa, Fluid (supercritical or subcritical phases), x2 = 0.902 | 678 ± 4
323.15 K, 8790 kPa, Fluid (supercritical or subcritical phases), x2 = 0.882 | 719 ± 4
